Key:
[1] = Half life in rat liver microsomes by LC/MS analysis; assay type: ADME, Microsome
[2] = Half life in human liver microsomes by LC/MS analysis; assay type: ADME, Microsome
[3] = Half life in rat at 1.4 mg/kg, iv; assay type: ADME, organism-based; parameters: dose 1.4 mg/kg, route intravenous; conditions: in vivo
[4] = Half life in dog at 0.52 mg/kg, iv; assay type: ADME, organism-based, Canis lupus familiaris; parameters: dose 0.52 mg/kg, route intravenous; conditions: in vivo
[5] = Half life in rat at 14 mg/kg, po; assay type: ADME, organism-based; parameters: dose 14 mg/kg, route oral; conditions: in vivo
[6] = Half life in dog at 1.8 mg/kg, po; assay type: ADME, organism-based, Canis lupus familiaris; parameters: dose 1.8 mg/kg, route oral; conditions: in vivo
[7] = AUC in rat at 14 mg/kg, po; assay type: ADME, organism-based; parameters: dose 14 mg/kg, route oral; conditions: plasma
[8] = AUC in dog at 1.8 mg/kg, po; assay type: ADME, organism-based, Canis lupus familiaris; parameters: dose 1.8 mg/kg, route oral; conditions: plasma
[9] = Volume of distribution at steady state in rat at 1.4 mg/kg, iv and 14 mg/kg, po; assay type: ADME, organism-based; conditions: in vivo, read-out: Vdss
[10] = Volume of distribution at steady state in dog at 0.52 mg/kg, iv and 1.8 mg/kg, po; assay type: ADME, organism-based, Canis lupus familiaris; conditions: in vivo, read-out: Vdss
[11] = Oral bioavailability in dog at 1.8 mg/kg; assay type: ADME, organism-based, Canis lupus familiaris; conditions: in vivo
[12] = Oral bioavailability in rat at 14 mg/kg; assay type: ADME, organism-based; conditions: in vivo
[13] = Half life in rat at 0.71 mg/kg, iv; assay type: ADME, organism-based; parameters: dose 0.71 mg/kg, route intravenous; conditions: in vivo
[14] = Volume of distribution at steady state in rat at 0.71 mg/kg, iv and 14 mg/kg, po; assay type: ADME, organism-based; conditions: in vivo, read-out: Vdss
[15] = Half life in dog at 0.85 mg/kg, iv; assay type: ADME, organism-based, Canis lupus familiaris; parameters: dose 0.85 mg/kg, route intravenous; conditions: in vivo
[16] = Half life in dog at 2.7 mg/kg, po; assay type: ADME, organism-based, Canis lupus familiaris; parameters: dose 2.7 mg/kg, route oral; conditions: in vivo
[17] = AUC in dog at 2.7 mg/kg, po; assay type: ADME, organism-based, Canis lupus familiaris; parameters: dose 2.7 mg/kg, route oral; conditions: plasma
[18] = Volume of distribution at steady state in dog at 0.85 mg/kg, iv and 2.7 mg/kg, po; assay type: ADME, organism-based, Canis lupus familiaris; conditions: in vivo, read-out: Vdss
[19] = Oral bioavailability in dog at 2.7 mg/kg; assay type: ADME, organism-based, Canis lupus familiaris; conditions: in vivo
[20] = Half life in rat at 0.8 mg/kg, iv; assay type: ADME, organism-based; parameters: dose 0.8 mg/kg, route intravenous; conditions: in vivo
[21] = Half life in dog at 0.8 mg/kg, iv; assay type: ADME, organism-based, Canis lupus familiaris; parameters: dose 0.8 mg/kg, route intravenous; conditions: in vivo
[22] = Half life in rat at 11 mg/kg, po; assay type: ADME, organism-based; parameters: dose 11 mg/kg, route oral; conditions: in vivo
[23] = Half life in dog at 2.5 mg/kg, po; assay type: ADME, organism-based, Canis lupus familiaris; parameters: dose 2.5 mg/kg, route oral; conditions: in vivo
[24] = AUC in rat at 11 mg/kg, po; assay type: ADME, organism-based; parameters: dose 11 mg/kg, route oral; conditions: plasma
[25] = AUC in dog at 2.5 mg/kg, po; assay type: ADME, organism-based, Canis lupus familiaris; parameters: dose 2.5 mg/kg, route oral; conditions: plasma
[26] = Volume of distribution at steady state in rat at 0.8 mg/kg, iv and 11 mg/kg, po; assay type: ADME, organism-based; conditions: in vivo, read-out: Vdss
[27] = Volume of distribution at steady state in dog at 0.8 mg/kg, iv and 2.5 mg/kg, po; assay type: ADME, organism-based, Canis lupus familiaris; conditions: in vivo, read-out: Vdss
[28] = Oral bioavailability in rat at 11 mg/kg; assay type: ADME, organism-based; conditions: in vivo
[29] = Oral bioavailability in dog at 2.5 mg/kg; assay type: ADME, organism-based, Canis lupus familiaris; conditions: in vivo
[30] = Half life in rat at 2 mg/kg, iv; assay type: ADME, organism-based; parameters: dose 2 mg/kg, route intravenous; conditions: in vivo
[31] = Half life in dog at 1 mg/kg, iv; assay type: ADME, organism-based, Canis lupus familiaris; parameters: dose 1 mg/kg, route intravenous; conditions: in vivo
[32] = Half life in rat at 10 mg/kg, po; assay type: ADME, organism-based; parameters: dose 10 mg/kg, route oral; conditions: in vivo
[33] = Half life in dog at 3 mg/kg, po; assay type: ADME, organism-based, Canis lupus familiaris; parameters: dose 3 mg/kg, route oral; conditions: in vivo
[34] = AUC in rat at 10 mg/kg, po; assay type: ADME, organism-based; parameters: dose 10 mg/kg, route oral; conditions: plasma
[35] = AUC in dog at 3 mg/kg, po; assay type: ADME, organism-based, Canis lupus familiaris; parameters: dose 3 mg/kg, route oral; conditions: plasma
[36] = Volume of distribution at steady state in rat at 2 mg/kg, iv and 10 mg/kg, po; assay type: ADME, organism-based; conditions: in vivo, read-out: Vdss
[37] = Volume of distribution at steady state in dog at 1 mg/kg, iv and 3 mg/kg, po; assay type: ADME, organism-based, Canis lupus familiaris; conditions: in vivo, read-out: Vdss
[38] = Oral bioavailability in rat at 10 mg/kg; assay type: ADME, organism-based; conditions: in vivo
[39] = Oral bioavailability in dog at 3 mg/kg; assay type: ADME, organism-based, Canis lupus familiaris; conditions: in vivo
[40] = Half life in monkey at 1.6 mg/kg, iv; assay type: ADME, organism-based, Macaca mulatta; parameters: dose 1.6 mg/kg, route intravenous; conditions: rhesus monkey, in vivo
[41] = Half life in monkey at 2.1 mg/kg, po; assay type: ADME, organism-based, Macaca mulatta; parameters: dose 2.1 mg/kg, route oral; conditions: rhesus monkey, in vivo
[42] = AUC in monkey at 2.1 mg/kg, po; assay type: ADME, organism-based, Macaca mulatta; parameters: dose 2.1 mg/kg, route oral; conditions: rhesus monkey, plasma
[43] = Volume of distribution at steady state in monkey at 1.6 mg/kg, iv and 2.1 mg/kg, po; assay type: ADME, organism-based, Macaca mulatta; conditions: rhesus monkey, in vivo, read-out: Vdss
[44] = Oral bioavailability in monkey at 2.1 mg/kg; assay type: ADME, organism-based, Macaca mulatta; conditions: rhesus monkey, in vivo

## N#Cc1ccsc1Cn1c(N2CCC[C@@H](N)C2)ncc(Br)c1=O
[1]
  half-life: 0.25 h
[2]
  half-life: > 3.33 h

## N#Cc1ccc(F)cc1Cn1c(N2CCC[C@@H](N)C2)ncc(F)c1=O
[1]
  half-life: > 3.33 h
[2]
  half-life: > 3.33 h

## N#Cc1ccc(F)cc1Cn1c(N2CCC[C@@H](N)C2)ncc(Cl)c1=O
[1]
  half-life: 2.03 h
[2]
  half-life: > 3.33 h

## N#Cc1ccc(F)cc1Cn1c(N2CCC[C@@H](N)C2)ncc(Br)c1=O
[1]
  half-life: 0.683 h
[2]
  half-life: > 3.33 h

## N#Cc1ccccc1Cn1c(N2CCC[C@@H](N)C2)cc(=O)[nH]c1=O
[1]
  half-life: > 3.33 h
[2]
  half-life: 2.15 h

## Cn1c(=O)c(Cl)c(N2CCC[C@@H](N)C2)n(Cc2ccccc2C#N)c1=O
[1]
  half-life: 0.933 h
[2]
  half-life: 2.73 h

## CCn1c(=O)cc(N2CCC[C@@H](N)C2)n(Cc2ccccc2C#N)c1=O
[1]
  half-life: 0.533 h
[2]
  half-life: > 3.33 h

## N[C@@H]1CCCN(c2cc(=O)[nH]c(=O)n2Cc2ccccc2Br)C1
[1]
  half-life: > 1.97 h
[2]
  half-life: > 3.33 h

## Cn1c(=O)cc(N2CCC[C@@H](N)C2)n(Cc2ccccc2Br)c1=O
[1]
  half-life: 1.37 h
[2]
  half-life: > 3.33 h

## Cn1c(=O)cc(N2CCC[C@@H](N)C2)n(Cc2cc(F)ccc2Br)c1=O
[1]
  half-life: 0.267 h
[2]
  half-life: 1.5 h

## Cn1c(=O)cc(N2CCC[C@@H](N)C2)n(Cc2cc(F)ccc2Cl)c1=O
[1]
  half-life: 0.883 h
[2]
  half-life: > 3.33 h

## Cn1c(=O)cc(N2CCC[C@@H](N)C2)n(Cc2ccc(F)cc2Cl)c1=O
[1]
  half-life: 1.12 h
[2]
  half-life: > 3.33 h

## Cn1c(=O)cc(N2CCC[C@@H](N)C2)n(Cc2cc(Cl)ccc2Cl)c1=O
[1]
  half-life: 0.167 h
[2]
  half-life: 2.75 h

## Cn1c(=O)cc(N2CCC[C@@](C)(N)C2)n(Cc2cc(F)ccc2C#N)c1=O
[1]
  half-life: 0.583 h
[2]
  half-life: > 3.33 h

## N#Cc1ccccc1Cn1c(N2CCC[C@@H](N)C2)nccc1=O.O=C(O)C(F)(F)F
[3]
  half-life: 0.74 h
[4]
  half-life: 2.4 h
[5]
  half-life: 1 h
[6]
  half-life: 2.8 h
[7]
  AUC: 1200 ng·h/mL
[8]
  AUC: 1400 ng·h/mL
[9]
  Vd: 4.8 L/kg
[10]
  Vd: 3 L/kg
[11]
  bioavailability: 78%
[12]
  bioavailability: 54%

## N#Cc1ccccc1Cn1c(N2CCC[C@@H](N)C2)ncc(F)c1=O.O=C(O)C(F)(F)F
[13]
  half-life: 1.5 h
[5]
  half-life: 1.5 h
[7]
  AUC: 3800 ng·h/mL
[14]
  Vd: 4.2 L/kg
[12]
  bioavailability: 73%

## Cl.N#Cc1ccccc1Cn1c(N2CCC[C@@H](N)C2)ncc(F)c1=O
[15]
  half-life: 4.6 h
[16]
  half-life: 4.5 h
[17]
  AUC: 3200 ng·h/mL
[18]
  Vd: 3.5 L/kg
[19]
  bioavailability: 80%

## Cl.N#Cc1ccccc1Cn1c(N2CCC[C@@H](N)C2)ncc(Cl)c1=O
[20]
  half-life: 1.3 h
[21]
  half-life: 5.2 h
[22]
  half-life: 1.3 h
[23]
  half-life: 4.8 h
[24]
  AUC: 2800 ng·h/mL
[25]
  AUC: 8400 ng·h/mL
[26]
  Vd: 3 L/kg
[27]
  Vd: 1.9 L/kg
[28]
  bioavailability: 65%
[29]
  bioavailability: 90%

## Cl.N#Cc1ccccc1Cn1c(N2CCC[C@@H](N)C2)ncc(Br)c1=O
[30]
  half-life: 1.1 h
[31]
  half-life: 5.3 h
[32]
  half-life: 1.7 h
[33]
  half-life: 6.1 h
[34]
  AUC: 2400 ng·h/mL
[35]
  AUC: 14700 ng·h/mL
[36]
  Vd: 3.2 L/kg
[37]
  Vd: 1.7 L/kg
[38]
  bioavailability: 74%
[39]
  bioavailability: 105%

## Cn1c(=O)cc(N2CCC[C@@H](N)C2)n(Cc2ccccc2C#N)c1=O [ALOGLIPTIN]
[1]
  half-life: 3.33 h
[2]
  half-life: 2.02 h

## N#Cc1ccccc1Cn1c(N2CCC[C@@H](N)C2)ncc(F)c1=O.O=C(O)C(O)C(O)C(=O)O [TARTARATE]
[40]
  half-life: 4 h
[41]
  half-life: 5.7 h
[42]
  AUC: 3100 ng·h/mL
[43]
  Vd: 3.2 L/kg
[44]
  bioavailability: 110%

## Cn1c(=O)cc(N2CCC[C@@H](N)C2)n(Cc2cc(F)ccc2C#N)c1=O [TRELAGLIPTIN]
[1]
  half-life: > 3.33 h
[2]
  half-life: > 3.33 h

Reference: ChEMBL document CHEMBL1649419, “Design and synthesis of pyrimidinone and pyrimidinedione inhibitors of dipeptidyl peptidase IV” (J Med Chem, 2011)
